# Values joined by “and” are separate entries in the source; they are usually repeats but may differ in a detail not shown here. Equal values may be shown once. Read-outs that look alike come from different tables or passages of the source.
# Experiments:
# Pf DD2 = test: microbe, parasite or virus in culture; assay type: cell-based; conditions: Plasmodium falciparum
# Text: (§1) tested in duplicate from two independent experiments using a SYBR-Green based assay2.
# (§2) (1 picture or pasted object on this page, not shown here)
# Pf 7G8 = test: microbe, parasite or virus in culture; assay type: cell-based; conditions: Plasmodium falciparum
# Text: as §1, §2
# Pf K1 = test: microbe, parasite or virus in culture; assay type: cell-based; conditions: Plasmodium falciparum
# Text: as §1, §2
# Pf SB1 = test: microbe, parasite or virus in culture; assay type: cell-based; conditions: Plasmodium falciparum
# Text: as §1, §2
# Dd2-6R F4 G7 = test: SYBR green growth assay, Dd2-6R F4 G7; conditions: Plasmodium falciparum
# Text: (§7) The drug was then washed off and the parasites were allowed to recover in normal growth media.
# Dd2-6R F4 D4 = test: SYBR green growth assay, Dd2-6R F4 D4; conditions: Plasmodium falciparum
# Text: as §7
# Dd2-6R F2 B5 = test: SYBR green growth assay, Dd2-6R F2 B5; conditions: for IC50: Plasmodium falciparum, DD2
# Text: as §7
# Dd2 [1] = test: SYBR green growth assay, Dd2 (parental); assay type: cell-based, P. falciparum; conditions: mean ± SD
# Method: (§3) To eliminate overlapping mode of action with known targets, cross-resistance testing of representative TAPs against drug-resistant lines with well-characterized mutations in Pf dihydroorotate dehydrogenase, Pf heat-shock protein 90, Pf chloroquine resistance transporter[25] or Pf cytochrome b reduction site[26] was performed. […] Assays were carried out in 384-well format with three technical replicates within an assay day and biological replicates carried out on three different assay days to assign a final EC50.
# (§4) A representative TAP (compound 6) was tested for its activity against a panel of P. falciparum strains known to harbour mutations conferring resistance to antimalarial agents under development. Artesunate and amodiaquine were included as additional control […]
# (§5) Values are the means ± standard deviation derived from three independent assays performed
# Dd2-6R F2 C5 = test: SYBR green growth assay, Dd2-6R F2 C5; conditions: Plasmodium falciparum
# Text: as §7
# Dd2-6R F2 D8 = test: SYBR green growth assay, Dd2-6R F2 D8; conditions: Plasmodium falciparum
# Text: as §7
# Dd2 DHODH DSM265 = test: [3H]-hypoxanthine incorporation assay, Dd2 DHODH DSM265 resistant; assay type: cell-based; conditions: Plasmodium falciparum
# Method: (§6) Supplementary Table 3: Compound 9 and 12 retain their activity against Pf strains harbouring mutations to novel antimalarial agents in clinical development. Compound 9 and 12 were tested for their antiplasmodial activity against a panel of Pf strains known to harbour mutations conferring resistance to novel agents under clinical development. Parasite growth inhibition is measured using the [3H]-hypoxanthine incorporation assay. IC50s are established for each strain (n ≥2) and compared to the IC50 of Dd2 (standard pan-resistant […]
# Pf W2 = test: microbe, parasite or virus in culture; assay type: cell-based; conditions: Plasmodium falciparum
# Text: as §1, §2
# Pf NF54 = test: microbe, parasite or virus in culture; assay type: cell-based; conditions: Plasmodium falciparum
# Text: as §1, §2
# Dd2-DHODH = test: SYBR green growth assay, Dd2-DHODH mutant; assay type: cell-based, P. falciparum
# Method: as §3, §4, §5
# Dd2-CYTbQi = test: SYBR green growth assay, Dd2-CYTbQi mutant; assay type: cell-based, P. falciparum
# Method: as §3, §4, §5
# Dd2-PfCRT = test: SYBR green growth assay, Dd2-PfCRT mutant; assay type: cell-based, P. falciparum
# Method: as §3, §4, §5
# Dd2-HSP90 = test: microbe, parasite or virus in culture; assay type: cell-based, P. falciparum
# Method: as §3, §4, §5
# Dd2 [2] = test: [3H]-hypoxanthine incorporation assay, Dd2; assay type: cell-based, Plasmodium falciparum
# Method: 9 and 12 were tested for their antiplasmodial activity against a panel of Pf strains known to harbour mutations conferring resistance to novel agents under clinical development. Parasite growth inhibition is measured using the [3H]-hypoxanthine incorporation assay. IC50s are established for each strain (n ≥2) and compared to the IC50 of Dd2 (standard pan-resistant
# Dd2 PfATP4 NITD609 = test: [3H]-hypoxanthine incorporation assay, Dd2 PfATP4 NITD609 resistant; assay type: cell-based; conditions: Plasmodium falciparum
# Method: as §6
# hERG = target: T1, hERG (Homo sapiens, UniProt Q12809); test: electrophysiology-based hERG assay using IonWorks HT (CHO cells); assay type: cell-based; conditions: hERG IC50
# T1 construct: expressed in transfected cells; host or cells: CHO cells
# T1 sequence (Q12809 whole entry): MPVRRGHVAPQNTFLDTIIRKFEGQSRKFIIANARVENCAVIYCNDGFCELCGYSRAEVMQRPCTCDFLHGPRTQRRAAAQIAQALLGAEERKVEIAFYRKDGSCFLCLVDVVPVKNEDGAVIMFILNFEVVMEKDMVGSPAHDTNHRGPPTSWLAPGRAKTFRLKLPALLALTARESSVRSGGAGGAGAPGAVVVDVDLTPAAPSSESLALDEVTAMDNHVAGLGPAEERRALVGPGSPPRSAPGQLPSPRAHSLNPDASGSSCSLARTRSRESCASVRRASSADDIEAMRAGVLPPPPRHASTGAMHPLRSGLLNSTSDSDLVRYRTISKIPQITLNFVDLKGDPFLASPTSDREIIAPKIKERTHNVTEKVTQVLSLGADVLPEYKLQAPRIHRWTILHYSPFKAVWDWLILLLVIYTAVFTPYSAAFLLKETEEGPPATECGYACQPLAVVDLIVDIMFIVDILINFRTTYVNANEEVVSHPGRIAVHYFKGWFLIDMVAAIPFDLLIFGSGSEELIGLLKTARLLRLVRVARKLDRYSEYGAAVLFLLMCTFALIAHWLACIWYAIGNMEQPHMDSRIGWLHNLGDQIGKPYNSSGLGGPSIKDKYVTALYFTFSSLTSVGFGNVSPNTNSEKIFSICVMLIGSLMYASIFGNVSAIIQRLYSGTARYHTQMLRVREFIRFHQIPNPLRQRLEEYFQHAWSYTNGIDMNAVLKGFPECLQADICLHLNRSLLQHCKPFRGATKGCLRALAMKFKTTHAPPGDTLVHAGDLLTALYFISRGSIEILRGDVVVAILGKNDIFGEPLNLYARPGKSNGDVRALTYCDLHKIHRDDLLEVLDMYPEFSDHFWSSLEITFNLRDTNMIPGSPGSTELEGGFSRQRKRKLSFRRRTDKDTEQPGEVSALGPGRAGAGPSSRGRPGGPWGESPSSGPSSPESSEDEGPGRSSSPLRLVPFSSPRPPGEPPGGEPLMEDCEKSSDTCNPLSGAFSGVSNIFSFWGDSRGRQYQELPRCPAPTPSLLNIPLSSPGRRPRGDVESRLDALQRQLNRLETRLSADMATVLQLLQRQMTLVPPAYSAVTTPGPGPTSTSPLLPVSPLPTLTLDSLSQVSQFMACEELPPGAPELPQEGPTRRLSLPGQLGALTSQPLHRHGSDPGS
# Method: hERG IC50 was determined in an electrophysiology-based hERG assay using IonWorks HT (CHO cells) as described earlier.
# [3] = target: T2, acetylcholine esterase (AChE) (Homo sapiens, UniProt P22303); test: AChE enzyme activity assay (CEREP); assay type: biochemical; conditions: read-out: AChE IC50
# T2 construct: purchased CEREP, France (external assay service) 0363
# T2 sequence (P22303 32-614): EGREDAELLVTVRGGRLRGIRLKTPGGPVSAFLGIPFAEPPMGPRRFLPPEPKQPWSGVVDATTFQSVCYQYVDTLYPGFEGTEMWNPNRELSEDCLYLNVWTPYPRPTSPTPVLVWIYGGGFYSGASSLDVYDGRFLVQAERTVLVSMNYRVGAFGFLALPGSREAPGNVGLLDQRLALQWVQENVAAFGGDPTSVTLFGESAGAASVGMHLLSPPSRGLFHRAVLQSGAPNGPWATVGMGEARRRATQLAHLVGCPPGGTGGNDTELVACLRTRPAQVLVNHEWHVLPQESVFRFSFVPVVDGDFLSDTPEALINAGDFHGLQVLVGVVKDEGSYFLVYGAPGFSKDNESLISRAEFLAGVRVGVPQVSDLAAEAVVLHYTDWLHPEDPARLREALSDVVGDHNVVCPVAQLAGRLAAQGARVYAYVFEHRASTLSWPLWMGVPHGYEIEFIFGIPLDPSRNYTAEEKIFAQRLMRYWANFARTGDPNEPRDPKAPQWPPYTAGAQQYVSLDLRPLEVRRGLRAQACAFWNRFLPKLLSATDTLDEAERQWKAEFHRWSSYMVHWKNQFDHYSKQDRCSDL
# Method: An in vitro pharmacological profiling panel was specifically designed for the detection of potential high- risk clinical adverse drug reactions. The panel comprised of 26 diverse targets (6 enzymes, 2 transporters, 9 G-protein-coupled receptors (GPCRs), 5 ion channels along with hERG, M2, alpha1A and AchE) and was conduced externally by CEREP, France […]. […] Detailed methodology for in vitro pharmacological profiling assays provided by CEREP can be found at http://www.cerep.fr, with specific reference to the AChE (cat. no. 0363), Muscarinic M1 receptor (cat. no. 0091) and Adrenergic α1A receptor (cat. no. 2338) assays. For enzyme and kinase assays, the results were expressed as a percent inhibition of control-specific activity obtained in the presence of the test compound. The IC50 values (concentration causing a half-maximal inhibition of control-specific activity) and Hill coefficients (nH) were determined by nonlinear regression analysis of the inhibition/concentration–response curves using Hill equation curve fitting as described earlier.
# Dd2 bc-1 ELQ-300 = test: [3H]-hypoxanthine incorporation assay, Dd2 bc-1 ELQ-300 resistant; assay type: cell-based, Plasmodium falciparum; conditions: Dd2 bc-1 ELQ-300; read-out: IC50
# Method: as §6
# [4] = Plasmodium falciparum, DD2, Dd2 parental, Supplementary Table 13
# [5] = Plasmodium falciparum, DD2, Dd2, Supplementary Table 2
smiles,measurement,setting,value
O=C1C(O)=C([C@H]2CC[C@H](c3ccc(Cl)cc3)CC2)C(=O)c2ccccc21 [Atovaquone],IC50,Pf DD2,2 ± 0.02 nM
same,IC50,Pf 7G8,2.3 ± 0.7 nM
same,IC50,Pf K1,2.3 ± 0.8 nM
same,IC50,Pf SB1,> 2000 nM
OC(c1cc(C(F)(F)F)nc2c(C(F)(F)F)cccc12)C1CCCCN1 (stereo not shown) [Mefloquine],IC50,Dd2-6R F4 G7,10.7 nM
same,IC50,Dd2-6R F4 D4,11.7 nM
same,IC50,Dd2-6R F2 B5,11.7 ± 2.6 nM
same,IC50,Dd2 [1]; [4],30.1 ± 7.2 nM
same,IC50,Dd2-6R F2 C5,12.1 nM
same,IC50,Dd2-6R F2 D8,12 nM
"Cc1cc(Nc2ccc(S(F)(F)(F)(F)F)cc2)n2nc(C(C)(F)F)nc2n1 [DSM265, reference compound]",IC50,Dd2 DHODH DSM265,48 nM
CCCCN(CCCC)CC(O)c1cc(Cl)cc2c1-c1ccc(Cl)cc1/C2=C/c1ccc(Cl)cc1 (stereo not shown) [Lumefantrine],IC50,Dd2-6R F4 G7,5.1 nM
same,IC50,Dd2-6R F4 D4,6.4 ± 2.4 nM
same,IC50,Dd2-6R F2 B5,6.8 ± 2 nM
same,IC50,Dd2 [1]; [4],15.6 ± 4.8 nM
same,IC50,Dd2-6R F2 C5,5.7 ± 1 nM
same,IC50,Dd2-6R F2 D8,6 ± 1.7 nM
CCc1nc(N)nc(N)c1-c1ccc(Cl)cc1 [Pyrimethamine],IC50,Pf W2,15400 ± 2830 nM
same,IC50,Pf DD2,13800 ± 8620 nM
same,IC50,Pf 7G8,10000 ± 1260 nM
same,IC50,Pf K1,8560 ± 1980 nM
same,IC50,Pf NF54,28.3 ± 11 nM
same,IC50,Pf SB1,10.8 ± 4 nM
C[C@@H]1CC[C@H]2[C@@H](C)C(=O)O[C@@H]3O[C@@]4(C)CC[C@@H]1[C@]32OO4 [Artemisinin],IC50,Pf W2,6.5 ± 1 nM
same,IC50,Pf DD2,10.3 ± 2 nM
same,IC50,Pf 7G8,1.3 ± 0.1 nM
same,IC50,Pf K1,6.5 ± 2 nM
same,IC50,Pf NF54,7 ± 4 nM
same,IC50,Pf SB1,16.6 ± 5 nM
CCN(CC)Cc1cc(Nc2ccnc3cc(Cl)ccc23)ccc1O [Amodiaquine],IC50,"Dd2-DHODH; Plasmodium falciparum, DD2",10.7 ± 2 nM
same,IC50,"Dd2-CYTbQi; Plasmodium falciparum, DD2",9.9 ± 3 nM
same,IC50,Dd2 [1]; [5],9.83 ± 0.4 nM
same,IC50,"Dd2-PfCRT; Plasmodium falciparum, DD2",8.86 ± 1 nM
same,IC50,"Dd2-HSP90; Plasmodium falciparum, DD2",8.96 ± 0.8 nM
Cc1nc2c(C#N)cccc2n1-c1ccc(C(=O)NC2CC2)s1 [Genz-669178],IC50,"Dd2-DHODH; Dd2-DHODH, mean ± SD, read-out: IC50",76.8 ± 10 nM
same,IC50,"Dd2-CYTbQi; Dd2-CYTbQi, mean ± SD, read-out: IC50",9.94 ± 0.9 nM
same,IC50,"Dd2 [1]; Dd2, Supplementary Table 2, read-out: IC50",5.79 ± 1 nM
same,IC50,"Dd2-PfCRT; Dd2-PfCRT, mean ± SD, read-out: IC50",5.07 ± 4 nM
same,IC50,"Dd2-HSP90; Dd2-HSP90, mean ± SD, read-out: IC50",16.2 ± 2 nM
"C[C@H]1Cc2c([nH]c3cc(Cl)c(F)cc23)[C@@]2(N1)C(=O)Nc1ccc(Cl)cc12 [NITD609, reference compound]",IC50,"Dd2 [2]; Plasmodium falciparum, DD2",0.6 nM
same,IC50,Dd2 PfATP4 NITD609,1.7 nM
CCN(CC)CCCC(C)Nc1ccnc2cc(Cl)ccc12 (stereo not shown) [Chloroquine],IC50,Pf SB1,11.8 ± 4.5 nM
C[C@H]1[C@H](OC(=O)CCC(=O)O)O[C@@H]2O[C@@]3(C)CC[C@H]4[C@H](C)CC[C@@H]1[C@@]24OO3 [Artesunate],IC50,"Dd2-DHODH; Plasmodium falciparum, DD2",1.81 ± 0.3 nM
same,IC50,Dd2-6R F4 G7,1.6 nM
same,IC50,Dd2-6R F4 D4,1.6 ± 0.9 nM
same,IC50,"Dd2-CYTbQi; Plasmodium falciparum, DD2",1.26 ± 0.4 nM
same,IC50,Dd2-6R F2 B5,1.6 ± 0.2 nM
same,IC50,Dd2 [1]; [5],1.51 ± 0.2 nM
same,IC50,Dd2 [1]; [4],2.6 ± 1.3 nM
same,IC50,"Dd2-PfCRT; Plasmodium falciparum, DD2",1.84 ± 0.3 nM
same,IC50,"Dd2-HSP90; Plasmodium falciparum, DD2",1.29 ± 0.2 nM
same,IC50,Dd2-6R F2 C5,1.2 ± 0.1 nM
same,IC50,Dd2-6R F2 D8,1.4 ± 0.1 nM
CNc1nc(Nc2ccc(OCC(F)(F)F)c(C)n2)ncc1N1CCN[C@H](C)C1 [compound 6],IC50,"Dd2-DHODH; Plasmodium falciparum, DD2",23.2 ± 5 nM
same,IC50,Dd2-6R F4 G7,112 nM
same,IC50,Dd2-6R F4 D4,98.9 nM
same,IC50,"Dd2-CYTbQi; Plasmodium falciparum, DD2",25.7 ± 5 nM
same,IC50,Dd2-6R F2 B5,102 nM
same,increase in IC50 compared with the parental Dd2 line,Dd2-6R F2 B5; compound 6-resistant Dd2-6R clones (five clones),3-6 fold and 3 fold
same,IC50,Dd2 [1]; [5],29.5 ± 3 nM
same,IC50,Dd2 [1]; [4],38.7 ± 1.1 nM
same,IC50,"Dd2-PfCRT; Plasmodium falciparum, DD2",18.9 ± 1 nM
same,IC50,"Dd2-HSP90; Plasmodium falciparum, DD2",27.9 ± 7 nM
same,IC50,Dd2-6R F2 C5,96.3 nM
same,IC50,Dd2-6R F2 D8,95.7 nM
"Cc1nc(Nc2ncc(N3CCN[C@H](C)C3)c(Nc3cc(C)n(C)n3)n2)ccc1F [compound 7, (R)-N4-(1,5-dimethyl-1H-pyrazol-3-yl)-N2-(5-fluoro-6-methylpyridin-2-yl)-5-(3-methylpiperazin-1-yl)pyrimidine-2,4-diamine]",IC50,hERG,> 33000 nM
same,IC50,[3],66000 nM
COC1=C2C[C@@H](C)C[C@H](OC)[C@H](O)[C@@H](C)/C=C(\C)[C@H](OC(N)=O)[C@@H](OC)/C=C\C=C(/C)C(=O)NC(=CC1=O)C2=O [Geldanamycin],IC50,"Dd2-DHODH; Plasmodium falciparum, DD2",257 ± 40 nM
same,IC50,"Dd2-CYTbQi; Plasmodium falciparum, DD2",169 ± 40 nM
same,IC50,Dd2 [1]; [5],176 ± 30 nM
same,IC50,"Dd2-PfCRT; Plasmodium falciparum, DD2",204 ± 20 nM
"COc1cc2[nH]c(C)c(-c3ccc(Oc4ccc(OC(F)(F)F)cc4)cc3)c(=O)c2cc1Cl [ELQ-300, reference compound]",IC50,"Dd2 [2]; Dd2, [3H]-hypoxanthine, read-out: IC50",20 nM
same,IC50,Dd2 bc-1 ELQ-300,125 nM
